Test results published in PubChem BioAssay AID1996.
In brackets after ≈: the same amount, converted by molar mass.

Conditions: buffer; pH 7.4; 200.0 µM

| SMILES | solubility kinetic [µg/mL] |
| --- | --- |
| Nc1nc(NCCOCCO)nc(N2CCCCCC2)c1[N+](=O)[O-] | 47.4 (≈ 139 µM) |
| COc1ccc(CCNc2nc(C)c(C(C)=O)s2)cc1OC | 44.1 (≈ 138 µM) |
| OC(CNCc1ccccc1)c1ccccc1 (centres undefined) | > 34.1 |
| Cc1ccc(NC(=O)C(C)C(=O)Nc2ccc(C)cc2)cc1 | 1.5 (≈ 5.06 µM) |
| CCCC(=O)Nc1cc2c3c(c1)CC(=O)N3CCC2 | > 38.7 |
| Cc1csc(=O)n1CC(=O)OCC(=O)NCc1ccccc1 | > 48.1 |
| O=C(Nc1ccc2c(c1)C(=O)OC2)c1ccc(F)cc1F | 2.3 (≈ 7.95 µM) |
| CCOc1cccc(NC(=O)c2cnccc2C(F)(F)F)c1 | 43.2 (≈ 139 µM) |
| Cc1nc([N+](=O)[O-])cn1C(C)C | > 25.4 |
| Cc1[nH]c2ccccc2c1/C=C(\C#N)C(=O)NC1CC1 | 6.8 (≈ 25.6 µM) |
| CCOc1cccc(C(=O)Nc2ccncc2)c1 | > 36.3 |
| O=C(/C=C/c1ccc(Cl)c([N+](=O)[O-])c1)c1ccc(O)cc1 | 3.9 (≈ 12.8 µM) |
| COCCN(CC(=O)Nc1cccc(C)c1C)C(=O)Cc1ccsc1 | > 54.1 |
| C/C(=N/OC(=O)CC(C)C)c1cc(-c2ccc(Cl)cc2)no1 | < 0.3 |
| Cc1cc(C(C)(C)C)cc(C)c1S(=O)(=O)N1CC(=O)Nc2ccccc21 | 5.7 (≈ 15.3 µM) |
| COC(=O)c1cccc(NC(=S)Nc2ccccc2Cl)c1 | 41.4 (≈ 129 µM) |
| Cc1cccc(OCC(=O)NCc2ccccc2)c1 | > 38.3 |
| CN(c1ccc(C(=O)COC(=O)C2CC2)cc1)S(C)(=O)=O | > 46.7 |
| CC(C)c1ccc(NC(=O)N2CCOCC2)cc1 | > 37.2 |
| CCn1c(N)c(Br)c(=O)[nH]c1=O | > 35.1 |

| SMILES | solubility kinetic [µg/mL] |
| --- | --- |
| CC(C)CCn1c(N2CCCC2)nc2c1c(=O)n(C)c(=O)n2C | 46.6 (≈ 146 µM) |
| COc1ccc(Cl)cc1C(=O)NCCCN1CCOCC1 | > 46.9 |
| CC(O)CNc1nc2c(c(=O)n(Cc3cccc(Cl)c3)c(=O)n2C)n1C (centres undefined) | 50.5 (≈ 134 µM) |
| Cc1cc(SCC(=O)NCC2CCCO2)nc2ccccc12 (centres undefined) | > 47.5 |
| CCCc1cc(=O)[nH]c(SCC(=O)c2c(N)n(C3CC3)c(=O)[nH]c2=O)n1 | 30.7 (≈ 81.3 µM) |
| CCCN1C(=O)c2ccc(C(=O)Nc3ccccc3C(=O)O)cc2C1=O | > 52.9 |
| N#Cc1cccc(NC(=O)COC(=O)c2cc(S(=O)(=O)Nc3ccccc3Cl)ccc2O)c1 | 40.4 (≈ 83.1 µM) |
| FC(F)(F)c1cccc(CN2CCSCC2)c1 | < 0.6 |
| CCOc1ccccc1NC(=O)c1cc(=O)c2ccccc2o1 | < 0.7 |
| CC(NC(=S)NC(=O)c1ccccc1)c1ccccc1 (centres undefined) | 6.4 (≈ 22.5 µM) |
| COC(=O)[C@H](CC(C)C)NC(=O)NCCC1=CCCCC1 | > 44.5 |
| CC(C)CCNC(=O)C1CC(=O)N(CCc2ccccc2)C1 (centres undefined) | > 45.4 |
| CCn1ncc(S(=O)(=O)Nc2cc(Cl)ccc2C)c1C | > 47.1 |
| Cc1ccccc1CS(=O)(=O)CC(O)CN1CCCC1=O (centres undefined) | > 46.7 |
| Cc1ccc(C(C)c2c(C)c([N+](=O)[O-])cc(C)c2[N+](=O)[O-])cn1 (centres undefined) | 13.4 (≈ 42.5 µM) |
| CCOc1ccc(CNc2ccc(N3CCN(Cc4ccccc4)CC3)cc2)cc1 | 0.9 (≈ 2.24 µM) |
| COC(=O)C1CCN(CC(=O)Nc2ccc3c(c2)OCCO3)CC1 | > 50.2 |
| N#CCCN(Cc1ccccc1)C(=O)c1nccnc1C(=O)O | > 46.5 |
| CC(=O)CN1C(=O)NC2(CCCc3ccccc32)C1=O (centres undefined) | > 40.8 |
| CCOC(=O)NC(=O)COC(=O)c1cccc2ccccc12 | > 45.2 |

| SMILES | solubility kinetic [µg/mL] |
| --- | --- |
| O=C(O)c1ccccc1NC(=O)N1CCOCC1 | > 37.5 |
| Cc1cc(Cl)ccc1NC(=O)c1ccc2c(c1)OCO2 | 2.5 (≈ 8.63 µM) |
| Cc1ccc(-c2c(C(=O)O)c3ccccc3[nH]c2=O)cc1 | > 41.9 |
| COc1ccccc1/C=C/c1nc2ccc(OC(C)=O)cc2c(=O)o1 | < 0.7 |
| CC(C)CC1(C)NC(=O)N(CC(=O)Nc2ccc3c(c2)OCCO3)C1=O (centres undefined) | > 54.2 |
| CC(C)Nc1nc(N)c(C(=O)C23CC4CC(CC(C4)C2)C3)s1 | 0.3 (≈ 0.939 µM) |
| CC(C)N1CCN(c2ccc(S(=O)(=O)N3CCOCC3)cn2)CC1 | > 53.2 |
| NS(=O)(=O)c1cccc(NC(=O)CN2C(=O)C(=O)N(Cc3ccccc3)C2=O)c1 | 60.5 (≈ 145 µM) |
| NC(=O)c1oc2ccccc2c1NC(=O)c1ccc([N+](=O)[O-])o1 | 1.8 (≈ 5.71 µM) |
| CC(Oc1ccc(Cl)cc1Cl)C(=O)Nc1ccc(OCC(=O)O)cc1 (centres undefined) | > 57.6 |
| Cc1nc2ccc(C(=O)N3CCN(Cc4ccccc4)CC3)cc2[nH]1 | 49.7 (≈ 149 µM) |
| CC1CCCCC1N=C1NC(C)(C)CS1 (centres undefined) | > 34 |
| CCn1cnnc1SCC(=O)Nc1ccccc1C(=O)NC1CC1 | > 51.8 |
| Cc1ccccc1S(=O)(=O)c1cc2ccccc2nc1N | 1.5 (≈ 5.03 µM) |
| CCOC(=O)C1CCCN(S(=O)(=O)c2c(C)noc2C)C1 (centres undefined) | > 47.5 |
| Cc1oc(/N=C/c2cccc([N+](=O)[O-])c2)c(C#N)c1C | 7.2 (≈ 26.7 µM) |
| CCN1CCCC1CNC(=O)c1cc2cc(F)ccc2[nH]1 (centres undefined) | > 43.4 |
| Cc1ccc(NS(=O)(=O)c2ccc(-c3csc(C)n3)s2)c(C)c1 | < 0.4 |
| COc1ccc(N/C(N)=N/c2nc(C)cc(=O)[nH]2)cc1 | 6.8 (≈ 24.9 µM) |
